What was measured:
MV-4-11 cells = test: Her2 degradation Method 2: MV-4-11 cell survival, Cell Counting Kit-8 (Table 2: inhibition of Hsp90); type: cell-based; conditions: Homo sapiens, MV4-11, 72 hours, cell survival by Cell Counting Kit-8, text calls it IC50 for Her2 degradation, read-out: IC50 range of compounds of the invention for inhibition of Hsp90, IC50
Procedure: MV-4-11 cells (20,000 cells/well) were cultured in 96-well plates and maintained at 37° C. for several hours. The cells were treated with a compound of the invention or 17AAG (a positive control) at various concentrations and incubated at 37° C. for 72 hours. Cell survival was measured with Cell Counting Kit-8 (Dojindo Laboratories, Cat. # CK04).

Her2 = test: Degradation of Her2 in BT-474 cells, Method 1 (Western blot); type: cell-based, human; conditions: 0.5 μM, overnight, positive control
Procedure: Human high-Her2 breast carcinoma BT474 (HTB-20), SK-BR-3 (HTB-30) and MCF-7 breast carcinoma (HTB-22) from American Type Culture Collection, VA, USA were grown in Dulbecco's modified Eagle's medium with 4 mM L-glutamine and antibiotics (100 IU/ml penicillin and 100 μg/ml streptomycine; GibcoBRL). To obtain exponential cell growth, cells were trypsinized, counted and seeded at a cell density of 0.5×10^6 cells/ml regularly, every 3 days. All experiments were performed on day 1 after cell passage.
BT-474 cells are treated with 0.5 μM, 2 μM, or 5 μM of 17AAG (a positive control) or 0.5 μM, 2 μM, or 5 μM of a compound of the invention overnight in DMEM medium. After treatment, each cytoplasmic sample is prepared from 1×10^6 cells by incubation of cell lysis buffer (#9803, Cell Signaling Technology) on ice for 10 minutes. The resulting supernatant used as the cytosol fractions is dissolved with sample buffer for SDS-PAGE and run on a SDS-PAGE gel, blotted onto a nitrocellulose membrane by using semi-dry transfer. Non-specific binding to nitrocellulose is blocked with 5% skim milk in TBS with 0.5% Tween at room temperature for 1 hour, then probed with anti-Her2/ErB2 mAb (rabbit IgG, #2242, Cell Signaling) and anti-Tubulin (T9026, Sigma) as housekeeping control protein. […]

For `COc1ccc(-n2c(C(N)=O)nnc2-c2c(O)ccc3ccccc23)cc1` [Compound 7, 5-(2-hydroxynaphthalen-1-yl)-4-(4-methoxyphenyl)-4H-1,2,4-triazole-3-carboxamide], the IC50 (MV-4-11 cells) was 20 to 50 µM.

Molecule `NC(=O)c1nnc(-c2cc3c(cc2O)OCO3)n1-c1ccc(N2CCOCC2)cc1` [Compound 1, 5-(6-hydroxybenzo[d][1,3]-dioxol-5-yl)-4-(4-morpholinophenyl)-4H-1,2,4-triazole-3-carboxamide] has an IC50 (MV-4-11 cells) of 20 to 50 µM.

`C=CCNC1=C2C[C@@H](C)C[C@H](OC)[C@H](O)[C@@H](C)/C=C(\C)[C@H](OC(N)=O)[C@@H](OC)/C=C\C=C(/C)C(=O)NC(=CC1=O)C2=O` [Compound 17AAG, 17-allylamino-17-demethoxygeldanamycin] was tested, and the “degradation of Her2” value (Her2) was “partial degradation”.

For `COc1ccc(-n2c(C(N)=O)nnc2-c2cc3c(cc2O)CCC3)cc1` [Compound 5, 5-(6-hydroxy-2,3-dihydro-1H-inden-5-yl)-4-(4-methoxyphenyl)-4H-1,2,4-triazole-3-carboxamide], the IC50 (MV-4-11 cells) was 10 to 20 µM.

`NC(=O)c1nnc(-c2cc3c(cc2O)OCCC3)n1-c1ccc2c(c1)OCO2` [Compound 2, 4-(benzo[d][1,3]dioxol-5-yl)-5-(7-hydroxychroman-6-yl)-4H-1,2,4-triazole-3-carboxamide] showed an IC50 (MV-4-11 cells) of no more than 10 µM.

Work on `COc1ccc(-n2c(C(N)=O)nnc2-c2c(O)ccc3c2CCCC3)cc1` [Compound 6, 5-(2-hydroxy-5,6,7,8-tetrahydronaphthalen-1-yl)-4-(4-methoxyphenyl)-4H-1,2,4-triazole-3-carboxamide] yielded an IC50 (MV-4-11 cells) of 20 to 50 µM.

`COc1ccc(-n2c(C(N)=O)nnc2-c2cc3c(cc2O)OCCC3)cc1` [Compound 4, 5-(7-hydroxychroman-6-yl)-4-(4-methoxyphenyl)-4H-1,2,4-triazole-3-carboxamide] was tested, and the IC50 (MV-4-11 cells) was greater than 50 µM.

`COc1ccc(-n2c(C(N)=O)nnc2-c2cc3c(cc2O)OCC3)cc1` [Compound 3, 5-(6-hydroxy-2,3-dihydrobenzofuran-5-yl)-4-(4-methoxyphenyl)-4H-1,2,4-triazole-3-carboxamide] was tested, and the IC50 (MV-4-11 cells) was 20 to 50 µM.

Work on `COc1ccc(-n2c(C(N)=O)nnc2-c2ccc3c(c2O)CCCC3)cc1` [Compound 8, 5-(1-hydroxy-5,6,7,8-tetrahydronaphthalen-2-yl)-4-(4-methoxyphenyl)-4H-1,2,4-triazole-3-carboxamide] yielded an IC50 (MV-4-11 cells) greater than 50 µM.

— patent US9126953B2, “Triazole compounds that modulate HSP90 activity” (Synta Pharmaceuticals Corp., priority 2008, dated 2015)
